Entries after “also recorded” stand apart in the source; their conditions may differ.
Key:
[1] = system: H. parasitica isolate Cala2; assay: Microscopy of trypan blue stained seedlings: growth and development of H. parasitica in planta; format: in vivo, Hyaloperonospora parasitica; conditions: for haustorial development: 5 mM infiltration, microscopy, 40x magnification, FIG. 7b
Protocol: (§1) To test if the effect is specific for homoserine the stereo-isomer D-homoserine was tested. Whole seedlings were infiltrated with water, 5 mM D-homoserine and 5 mM L-homoserine. […] The infiltration was applied to two Arabidopsis accessions, Ler eds1-2 and Ws eds1-1, susceptible to Cala2 and Waco9, respectively. Conidiophore formation was determined as an indicator for H. parsitica susceptibility. Conidiophores were counted 5 days post inoculation with H. parasitica and 2 days post infiltration with water, D-homoserine or L-homoserine. (FIG. 6). […] This was further confirmed by studying pathogen growth in planta by trypan blue staining of Arabidopsis seedlings. Plants were inoculated with isolate Cala2. Two days later the plants were treated by infiltration with water, 5 mM D-homoserine, and 5 mM L-homoserine.
Again it is shown that increased levels of homoserine in planta lead to pathogen resistance.

[2] = system: H. parasitica isolates Cala2 and Waco9; assay: Conidiophore counting on H. parasitica-inoculated Arabidopsis seedlings infiltrated with homoserine; format: in vivo, Hyaloperonospora parasitica
Protocol: The inoculated seedlings were infiltrated with dH2O, D-homoserine (5 mM) or L-homoserine (5 mM) at 3 days post inoculation with the pathogen.
as §1

[3] = 5 mM infiltration of whole Arabidopsis seedlings

| Compound | haustorial development [1] | pathogen growth [2, 3] | resistance / susceptibility to H. parasitica [2, 3] | pathogen growth in planta (trypan blue staining) ([1]; 5 mM infiltration two days after inoculation with Cala2, scored 5 days post inoculation, FIG. 7) | conidiophore formation (microscopy) ([1]; 5 mM infiltration two days after inoculation with Cala2, scored 5 days post inoculation, Ler eds1-2 seedlings, trypan blue, FIG. 7) | conidiophore formation (number of conidiophores per seedling) ([2]; 5 mM infiltration of whole seedlings, counted 5 days post inoculation, 2 days post infiltration, Ler eds1-2 (Cala2) and Ws eds1-1 (Waco9), FIG. 6) |
| --- | --- | --- | --- | --- | --- | --- |
| N[C@H](CCO)C(=O)O [D-homoserine, reference compound] | not | did not show a large reduction in pathogen growth | susceptible to H. parasitica | – | – | – |
| N[C@@H](CCO)C(=O)O [L-homoserine] | affected; also recorded: disturbed | – | resistant; also recorded: resulted in resistance to H. parasitica | strongly reduced pathogen growth | No conidiophore formation was detected | complete absence of conidiophore formation; also recorded: reduction of conidiophore formation |

From patent US8354570B2, “Disease resistant plants” (Enza Zaden Beheer B.V., priority 2005, dated 2013)
